Test results taken from US7226937B2, “Methods for modulating phototoxicity” (Board of Regents on Behalf of the University of Arizona, priority 2002, dated 2007).

Tests used:
[1] = test system: HaCaT keratinocytes; assay: Proliferation inhibition of HaCaT keratinocytes with or without light; type: cell-based; settings: for cell proliferation relative to a control (antiproliferative effect): 500 μM compound, HaCaT keratinocytes, no light or UVA 3.3 J/cm^2, 3 days after stimulation
Experimental: (§1) A series of experiments were carried out on HaCaT keratinocytes, and human CF3 fibroblasts. In these experiments, cell samples were contacted with 500 μM of pyridinoline, 500 μM of desmosine, which is an elastin constituent with a structure related to pyridinoline, or 500 μM of vitamin B6 (pyridoxine). Controls received no added compound. In one set of experiments, the cells received no external light source. In another set of experiments, they received UVA light, at 3.3 J/cm^2. The CF3 fibroblasts received solar simulated light, or “SSL,” which combines 2.3 J/cm^2 of UVA light, and 0.12 J/cm^2 of UVB light. Results are shown, in FIG. 2, in terms of percent of cell proliferation relative to a control (no added compound, no light). The measurements were taken 3 days after stimulation.
HaCaT cells, as described supra, were tested in a proliferation inhibition assay. Cell samples received equal amounts of one of the 4 compounds listed supra and were contacted with or without either solar simulated light (“SSL”) as described, supra, or UVA light alone, also as described supra.
The antiproliferative effect of the complexes described in example 4 were tested, by adding either nothing (control), BSA, or the BSA-B6 complexes, and treating or not treating samples of HaCaT keratinocytes with SSL. The BSA and BSA-B6 were added at 10 mg/ml, and the SSL was 2.3 J/cm^2 of UVA plus 0.12 J/cm^2 UVB. Three days after treatment, proliferation was measured using a Coulter counter, and standard methods.

[2] = test system: skin fibroblasts (CF3 cells); assay: Cell protection against sensitized photodamage (TB plus visible light); type: cell-based, human; settings: test compound 10 mM, TB 3.3 μM, visible light 10.8 J/cm^2; for Cell Protection against Sensitized Photodamage: ± SD, n = 3, CF3 fibroblasts counted after 3 days; for protective effect against sensitized photodamage, in words: CF3 fibroblasts
Experimental: Cultured skin fibroblasts (CF3 cells) were exposed to photooxidative stress from ^1O2 which had formed, in situ, by dye sensitization.
In brief, 50,000 fibroblasts were seeded in a 35 mm culture dish, and then treated one day later with visible light (90 seconds exposure, providing 10.8 J/cm^2) in the presence or absence of TB (3.3 μM in Hanks buffered salt solution). Five minutes after treatment, cells were washed, with phosphate buffered saline. Test compound (10 mM) was present or absent in the culture during the radiation. After 3 days of cultivation, cells were harvested via trypsinization, and counted using a Coulter counter.
Protection was determined via the formula: […]

[3] = test system: ΦX174 plasmid; assay: Suppression of AGE-sensitized DNA (plasmid) cleavage; type: biochemical; settings: for suppression of AGE-sensitized plasmid cleavage, in words: as in Table 1
Description: It is well known that ΦX174 plasmid is cleaved only by combined action of irradiation from solar simulated light, and AGE-pigment enriched protein, which acts as a UV sensitizer. AGE-BSA (“advanced glycation end product” modified bovine serum albumin), is a model for accumulation of endogenous skin sensitizers of the type described supra. Details of the assay showing this will be found in Wondrak, et al., Photochem. Photobiol. […] This assay was used in this example.
Plasmid cleavage was visualized by running samples on 1% agarose gels, and damage, i.e., formation of relaxed, open circular forms from closed circular forms (undamaged) were quantified via densitometry, which permitted assessment of the protective effect of a compound.
AGE-cleavage proceeds in the absence of oxygen, and cannot be suppressed fully via antioxidants. As such, if a compound suppresses plasmid cleavage it cannot be simply considered an antioxidant. In contrast, inhibition via quenching of the excited state, as described supra, must be presumed.
Using this assay, a series of proline related compounds and proline were tested. The structures of the compounds are set forth at FIG. 10. FIG. 11, sets forth the results of these experiments. […]

[4] = mixture of TB and L-Pro in PBS; visible light 36 J/cm^2
[5] = test system: human CF3 fibroblasts; assay: Proliferation inhibition of CF3 fibroblasts with or without solar simulated light; type: cell-based; settings: 500 μM compound, no light or SSL (2.3 J/cm^2 UVA, 0.12 J/cm^2 UVB), 3 days after stimulation
Experimental: as §1

Compound: Oc1cccnc1 [3-hydroxypyridine]
- type of light in whose presence the compound functioned ([1]; HaCaT cells, SSL or UVA alone): functioned in the presence of UVB light as a cell proliferation inhibitor
- effect on HaCaT cells in proliferation inhibition assay, compared to controls ([1]; equal amounts of compound, with or without SSL or UVA light): inhibitory effect

Compound: O=C(O)[C@@H]1CC(O)CN1 (stereo partly drawn) [4-OH-L-Pro, 4-hydroxy-L-proline]
- Cell Protection against Sensitized Photodamage [2]: 7.3 ± 2.5%

Compound: COC(=O)[C@@H]1CC(O)CN1 (stereo partly drawn) [4-OH-L-Pro-OCH3, 4-OH-L-proline methyl ester]
- protective effect against sensitized photodamage, in words [2]: very clear protective effect
- Cell Protection against Sensitized Photodamage [2]: 71.0 ± 13.4%

Compound: CC(C)(S)[C@@H](N)C(=O)O [D-Penicillamine, D-penicillamine]
- % Inhibition (±SD) of AGE-sensitized DNA cleavage ([3]; 20 mM): 95.7 ± 0.7%
- suppression of AGE-sensitized plasmid cleavage, in words [3]: effective

Compound: C1CN2CCN1CC2 [DABCO]
- % Inhibition (±SD) of AGE-sensitized DNA cleavage ([3]; 20 mM): 32.9 ± 1.1%

Compound: CC(=O)N(O)CCCCCNC(=O)CCC(=O)N(O)CCCCCNC(=O)CCC(=O)N(O)CCCCCN [DFO]
- % Inhibition (±SD) of AGE-sensitized DNA cleavage ([3]; 1 mM): 51.3 ± 1.0%

Compound: N[C@@H](CCC(=O)N[C@@H](CS)C(=O)NCC(=O)O)C(=O)O [GSH, glutathione]
- % Inhibition (±SD) of AGE-sensitized DNA cleavage ([3]; 20 mM): 100.0 ± 0.0%
- suppression of AGE-sensitized plasmid cleavage, in words [3]: effective

Compound: N[C@@H](Cc1c[nH]cn1)C(=O)O [L-Histidine]
- % Inhibition (±SD) of AGE-sensitized DNA cleavage ([3]; 20 mM): 43.7 ± 0.4%

Compound: O=C(O)[C@@H]1CCCN1 [L-Pro, proline]
- Cell Protection against Sensitized Photodamage [2]: 6.2 ± 5.4%
- change in HPLC peak, retention time or AUC after light exposure (inertness toward 1O2) [4]: No changes were observed

Compound: COC(=O)[C@@H]1CCCN1 [L-Pro-OCH3]
- quenching of photosensitized DNA damage (plasmid cleavage) ([3]; test compound 100 mM, UVA 2.3 J/cm^2, AGE-BSA 10 mg/ml): most potent of the quenchers
- protective effect against sensitized photodamage, in words [2]: very clear protective effect
- Cell Protection against Sensitized Photodamage [2]: 83.8 ± 10.9%

Compound: OC[C@@H](O)[C@@H](O)[C@H](O)[C@H](O)CO [Mannitol]
- % Inhibition (±SD) of AGE-sensitized DNA cleavage ([3]; 20 mM): 47.5 ± 2.5%

Compound: CC(=O)N[C@@H](CS)C(=O)O [NAC, N-acetyl-L-cysteine]
- % Inhibition (±SD) of AGE-sensitized DNA cleavage ([3]; 20 mM): 99.4 ± 0.9%
- suppression of AGE-sensitized plasmid cleavage, in words [3]: effective

Compound: [N-]=[N+]=[N-].[Na+] [NaN3]
- % Inhibition (±SD) of AGE-sensitized DNA cleavage ([3]; 20 mM): 94.0 ± 0.5%
- suppression of AGE-sensitized plasmid cleavage, in words [3]: effective

Compound: Cc1ncc(CO)c(CO)c1O [Vitamin B6, pyridoxine]
- cell proliferation relative to a control (antiproliferative effect) [1]: dramatically more efficacy in inhibiting the cellular proliferation
- cell proliferation relative to a control (antiproliferative effect) [5]: dramatically more efficacy in inhibiting the cellular proliferation

Compound: N[C@@H](CC[C@@H](O)C[n+]1cc(O)c(C[C@H](N)C(=O)O)c(CC[C@H](N)C(=O)O)c1)C(=O)[O-] [pyridinoline]
- cell proliferation relative to a control (antiproliferative effect) [1]: antiproliferative effect, but only in the presence of light
- cell proliferation relative to a control (antiproliferative effect) [5]: antiproliferative effect, but only in the presence of light

Compound: Catalase
- % Inhibition (±SD) of AGE-sensitized DNA cleavage ([3]; 400 u/mL): 57.5 ± 4.7%
- effect of catalase on vitamin B6 sensitization ([1]; catalase added at 400 μ/ml, cell type not stated): absolutely no effect
